Data taken from US20100041642A1, “UREA INHIBITORS OF MAP KINASES” (LOCUS PHARMACEUTICALS, INC., priority 2008, published 2010).

biological target: p38 (Homo sapiens, UniProt Q16539); test: Protein Kinase Assay (33P incorporation from γ-[33P]ATP into GST-ATF-2); type: biochemical; conditions: 2 nM p38, preincubated 20 min at 30° C.; 10 uM cold ATP, 2 uM GST-ATF2, 70 min; read-out: ACT. (Activity), IC50 category in Protein Kinase Assay
Method in brief: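 Compounds preincubated 20 min at 30 °C with 2 nM p38; reaction started with 2 uM GST-ATF-2 (aa 19-96) and 10 uM ATP plus γ-[33P]ATP, pH 7.5, 70 min at 30 °C, 2% DMSO. Phosphoric acid stop; 33P-labelled substrate captured on phosphocellulose and counted by scintillation.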

p38, sequence (Q16539 whole entry, the tested form may be a part): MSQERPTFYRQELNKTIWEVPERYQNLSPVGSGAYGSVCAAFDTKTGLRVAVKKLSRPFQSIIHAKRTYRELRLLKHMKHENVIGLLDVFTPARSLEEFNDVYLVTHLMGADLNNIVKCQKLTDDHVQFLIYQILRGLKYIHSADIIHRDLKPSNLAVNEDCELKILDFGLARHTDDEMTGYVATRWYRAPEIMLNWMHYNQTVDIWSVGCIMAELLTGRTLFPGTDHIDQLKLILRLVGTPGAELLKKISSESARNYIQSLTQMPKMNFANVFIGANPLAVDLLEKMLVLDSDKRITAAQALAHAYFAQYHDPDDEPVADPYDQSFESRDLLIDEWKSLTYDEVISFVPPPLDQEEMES

IC50, < 100 nM:
CCc1ccc(-c2cc(NC(=O)Nc3sc(C(C)(C)C)cc3C(=O)N3CCNC(=O)C3(C)C)ccc2C)nc1 [1-(5-tert-butyl-3-(2,2-dimethyl-3-oxopiperazine-1-carbonyl)thiophen-2-yl)-3-(3-(5-ethylpyridin-2-yl)-4-methylphenyl)urea]
COc1ccc(-c2cc(NC(=O)Nc3sc(C(C)(C)C)cc3C(=O)N3CCNC(=O)C3(C)C)ccc2C)nc1 [1-(5-tert-butyl-3-(2,2-dimethyl-3-oxopiperazine-1-carbonyl)thiophen-2-yl)-3-(3-(5-methoxypyridin-2-yl)-4-methylphenyl)urea]
Cc1ccc(NC(=O)Nc2sc(C(C)(C)C)cc2C(=O)N2CCNC(=O)C2(C)C)cc1-c1ccc(C(C)O)nc1 (stereo not drawn) [1-(5-tert-butyl-3-(2,2-dimethyl-3-oxopiperazine-1-carbonyl)thiophen-2-yl)-3-(3-(6-(1-hydroxyethyl)pyridin-3-yl)-4-methylphenyl)urea]
Cc1ccc(NC(=O)Nc2sc(C(C)(C)C)cc2C(=O)N2CCNC(=O)C2(C)C)cc1-c1ccc(OCCN(C)C)nc1 [1-(5-tert-butyl-3-(2,2-dimethyl-3-oxopiperazine-1-carbonyl)thiophen-2-yl)-3-(3-(6-(2-(dimethylamino)ethoxy)pyridin-3-yl)-4-methylphenyl)urea]
CN(C)CCOc1ccc(-c2cccc(NC(=O)Nc3sc(C(C)(C)C)cc3C(=O)N3CCNC(=O)C3(C)C)c2)cn1 [1-(5-tert-butyl-3-(2,2-dimethyl-3-oxopiperazine-1-carbonyl)thiophen-2-yl)-3-(3-(6-(2-(dimethylamino)ethoxy)pyridin-3-yl)phenyl)urea]
CC(C)(C)c1cc(C(=O)N2CCNC(=O)C2(C)C)c(NC(=O)Nc2cccc(-c3ccc(OCCN4CCOCC4)nc3)c2)s1 [1-(5-tert-butyl-3-(2,2-dimethyl-3-oxopiperazine-1-carbonyl)thiophen-2-yl)-3-(3-(6-(2-morpholinoethoxy)pyridin-3-yl)phenyl)urea]
CN1CCN(CCCOc2ccc(-c3cccc(NC(=O)Nc4sc(C(C)(C)C)cc4C(=O)N4CCNC(=O)C4(C)C)c3)cn2)CC1 [1-(5-tert-butyl-3-(2,2-dimethyl-3-oxopiperazine-1-carbonyl)thiophen-2-yl)-3-(3-(6-(3-(4-methylpiperazin-1-yl)propoxy)pyridin-3-yl)phenyl)urea]
Cc1ccc(NC(=O)Nc2sc(C(C)(C)C)cc2C(=O)N2CCNC(=O)C2(C)C)cc1-c1ccc(OCCCN(C)C)nc1 [1-(5-tert-butyl-3-(2,2-dimethyl-3-oxopiperazine-1-carbonyl)thiophen-2-yl)-3-(3-(6-(3-(dimethylamino)propoxy)pyridin-3-yl)-4-methylphenyl)urea]
CN(C)CCCOc1ccc(-c2cccc(NC(=O)Nc3sc(C(C)(C)C)cc3C(=O)N3CCNC(=O)C3(C)C)c2)cn1 [1-(5-tert-butyl-3-(2,2-dimethyl-3-oxopiperazine-1-carbonyl)thiophen-2-yl)-3-(3-(6-(3-(dimethylamino)propoxy)pyridin-3-yl)phenyl)urea]
Cc1ccc(NC(=O)Nc2sc(C(C)(C)C)cc2C(=O)N2CCNC(=O)C2(C)C)cc1-c1ccc(N2CCC(N(C)C)C2)nc1 (stereo not drawn) [1-(5-tert-butyl-3-(2,2-dimethyl-3-oxopiperazine-1-carbonyl)thiophen-2-yl)-3-(3-(6-(3-(dimethylamino)pyrrolidin-1-yl)pyridin-3-yl)-4-methylphenyl)urea]
CC(C)(C)c1cc(C(=O)N2CCNC(=O)C2(C)C)c(NC(=O)Nc2cccc(-c3ccc(OCCCc4ccccn4)nc3)c2)s1 [1-(5-tert-butyl-3-(2,2-dimethyl-3-oxopiperazine-1-carbonyl)thiophen-2-yl)-3-(3-(6-(3-(pyridin-2-yl)propoxy)pyridin-3-yl)phenyl)urea]
CC(C)(C)c1cc(C(=O)N2CCNC(=O)C2(C)C)c(NC(=O)Nc2cccc(-c3ccc(OCCCN4CCOCC4)nc3)c2)s1 [1-(5-tert-butyl-3-(2,2-dimethyl-3-oxopiperazine-1-carbonyl)thiophen-2-yl)-3-(3-(6-(3-morpholinopropoxy)pyridin-3-yl)phenyl)urea]
Cc1ccc(NC(=O)Nc2sc(C(C)(C)C)cc2C(=O)N2CCNC(=O)C2(C)C)cc1-c1ccc(N(C)C)nc1 [1-(5-tert-butyl-3-(2,2-dimethyl-3-oxopiperazine-1-carbonyl)thiophen-2-yl)-3-(3-(6-(dimethylamino)pyridin-3-yl)-4-methylphenyl)urea]
Cc1ccc(NC(=O)Nc2sc(C(C)(C)C)cc2C(=O)N2CCNC(=O)C2(C)C)cc1-c1ccc(NCC(C)C)nc1 [1-(5-tert-butyl-3-(2,2-dimethyl-3-oxopiperazine-1-carbonyl)thiophen-2-yl)-3-(3-(6-(isobutylamino)pyridin-3-yl)-4-methylphenyl)urea]
CC(=O)c1ccc(-c2cc(NC(=O)Nc3sc(C(C)(C)C)cc3C(=O)N3CCNC(=O)C3(C)C)ccc2C)cn1 [1-(5-tert-butyl-3-(2,2-dimethyl-3-oxopiperazine-1-carbonyl)thiophen-2-yl)-3-(3-(6-ethanoylpyridin-3-yl)-4-methylphenyl)urea]
CCc1ccc(-c2cc(NC(=O)Nc3sc(C(C)(C)C)cc3C(=O)N3CCNC(=O)C3(C)C)ccc2C)cn1 [1-(5-tert-butyl-3-(2,2-dimethyl-3-oxopiperazine-1-carbonyl)thiophen-2-yl)-3-(3-(6-ethylpyridin-3-yl)-4-methylphenyl)urea]
CCc1ccc(-c2cc(NC(=O)Nc3sc(C(C)(C)C)cc3C(=O)N3CCNC(=O)C3(C)C)cc(F)c2C)cn1 [1-(5-tert-butyl-3-(2,2-dimethyl-3-oxopiperazine-1-carbonyl)thiophen-2-yl)-3-(3-(6-ethylpyridin-3-yl)-5-fluoro-4-methylphenyl)urea]
C#Cc1ccc(-c2cc(NC(=O)Nc3sc(C(C)(C)C)cc3C(=O)N3CCNC(=O)C3(C)C)ccc2C)cn1 [1-(5-tert-butyl-3-(2,2-dimethyl-3-oxopiperazine-1-carbonyl)thiophen-2-yl)-3-(3-(6-ethynylpyridin-3-yl)-4-methylphenyl)urea]
Cc1ccc(NC(=O)Nc2sc(C(C)(C)C)cc2C(=O)N2CCNC(=O)C2(C)C)cc1-c1ccc(F)nc1 [1-(5-tert-butyl-3-(2,2-dimethyl-3-oxopiperazine-1-carbonyl)thiophen-2-yl)-3-(3-(6-fluoropyridin-3-yl)-4-methylphenyl)urea]
Cc1ccc(NC(=O)Nc2sc(C(C)(C)C)cc2C(=O)N2CCNC(=O)C2(C)C)cc1-c1ccc(C(C)C)nc1 [1-(5-tert-butyl-3-(2,2-dimethyl-3-oxopiperazine-1-carbonyl)thiophen-2-yl)-3-(3-(6-isopropylpyridin-3-yl)-4-methylphenyl)urea]
COc1ccc(-c2cc(NC(=O)Nc3sc(C(C)(C)C)cc3C(=O)N3CCNC(=O)C3(C)C)ccc2C)cn1 [1-(5-tert-butyl-3-(2,2-dimethyl-3-oxopiperazine-1-carbonyl)thiophen-2-yl)-3-(3-(6-methoxypyridin-3-yl)-4-methylphenyl)urea]
